# From publication PMC9258321, “Structure-guided design of CPPC-paired disulfide-rich peptide libraries for ligand and drug discovery” (Chemical Science, 2022)
# Bridge positions count the residues as written; N and C are the ends. Square brackets hold non-standard residues; d marks the D form. Peptide text beside a SMILES is read from it. * marks the point of attachment. FITC = O=C1OC2(c3ccc(O)cc3Oc3cc(O)ccc32)c2ccc(NC(=S)*)cc21; βAla = NCCC(=O)O
# Assays:
# Keap1 = molecular target: T1, Keap1 (Homo sapiens, UniProt Q14145); assay: Surface plasmon resonance (SPR) assay, affinity of peptides to Keap1; format: binding; conditions: Biacore T200, 25 °C, biotinylated Keap1 on CAP chip, peptide 25-1600 nM, flow 30 μL/min, multi-cycle affinity method, oxidized, HPLC-purified peptide, read-out: equilibrium dissociation constant (KD) toward Keap1
# T1 construct: another target (the Kelch domain of Keap1)
# T1 sequence (Q14145 321-609 limits assumed, species assumed): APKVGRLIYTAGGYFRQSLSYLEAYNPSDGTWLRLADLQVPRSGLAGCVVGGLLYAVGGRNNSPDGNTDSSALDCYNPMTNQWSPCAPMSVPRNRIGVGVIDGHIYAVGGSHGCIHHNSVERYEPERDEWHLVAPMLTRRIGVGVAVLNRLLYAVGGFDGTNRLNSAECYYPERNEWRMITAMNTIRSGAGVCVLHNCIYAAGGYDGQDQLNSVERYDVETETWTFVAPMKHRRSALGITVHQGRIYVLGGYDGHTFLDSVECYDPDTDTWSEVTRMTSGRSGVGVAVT
# Protocol: Surface plasmon resonance (SPR) assay
# The affinity of peptides to Keap1 was measured using Biacore T200 (GE healthcare) at 25℃. At first, Keap1 was linked to a Biacore CAP chip via the interaction of biotin and avidin (Biotinylation of Keap1 occurs through the preceding reaction, Biacore CAP chip was performed through a Biotin CAPture Kit (GE healthcare)). Then, different concentrations of peptides were used in experiment (25, 50, 100, 200, 400, 800, 1600 nM) at a flow rate of 30 μL/min. The binding affinity and kinetics constants were quanti-fied by a multi-cycle affinity method.
# NMR samples were dissolved in 80% perdeuterated acetonitrile and 20% H2O for drp1, 75% perdeu-terated acetonitrile and […] for drp2-a, 60% perdeuterated acetonitrile and 40% H2O for drp8, 50% perdeuterated acetonitrile and 50% H2O for drp3 and drp6, 40% perdeuterated acetonitrile and 60% H2O for drp2-b and drp4 (The solution conditions depend on the dispersion of cross -peaks). All of NMR samples were prepared in a final concentration of about 1 mM. […] Two dimensional (2D) 1H, 15N/13C HSQC spectra were recorded to obtain chemical shifts of heavy atoms in backbone and side-chains. […]
# The backbone dihedral angle restraints were obtained using programs TALOS -N based on chemical shifts of backbone resonances6. […] The structures were visualized in PyMol, and the quality of structures was analyzed using PROCHECK 9. […]
# MDM2 = assay: Fluorescence polarization (FP) competition assay, binding to MDM2; conditions: FP competition assay described previously (ref 32 method); oxidized products; Fig. S3
# Text: The most abundantly enriched sequences from both selections were then synthesized, and their oxidative folding in redox buffers were examined using HPLC. Oxidation of the MDM2-binding peptide (drp2) yields two products (drp2-a and drp2-b) in a ratio of ∼1 : 3 (Fig. 2c). […] The structures of the two products were then characterized using NMR (Fig. 2c; PDB 7W8O and 7W8R). Both products can maintain a stable, but different 3D structure with a conserved α-helix responsible for target recognition, corresponding to the parallel and antiparallel dimeric pairing of the two CPPC motifs in the peptide (drp2-a and drp2-b, respectively). […]
# min incubation at room temperature, the fluorescence anisotropies were measured using a plate reader (Eex= 485 nm, Eem=535 nm). All of the measurements were recorded in triplicate. In the fluorescence polarization assay s measuring the binding of reduced FITC-drp8 to CD28 and the binding of oxidized FITC-drp8 to CTLA-4, the fluorescence anisotrop ies were recorded in the same way as described above.
# Dissociation constants ( KD) were determined by nonlinear regression analysis of anisotrop ies versus the concentrations of the protein using the following equation: […]
# (b) Competition fluorescence polarization assay. The binding of drp8 to CD28 was measured by adding dilutions of drp8 to premixed oxidized FITC-drp8 and CD28 in PBS (pH 7.4). […]
# [1] = Circular dichroism (CD) thermal denaturation; format: physicochemical; conditions: CD 190-260 nm, 61 μM in pure water, scans at 25, 45, 75 and 95 °C; only a small decline of CD signals up to 95 °C; Fig. S7
# Text: (§1) from 2% agarose gel (containing 0.005% v/v of 4S Red Plus Nucleic Acid Stain) used a commercial agarose gel purification kit (E.Z.N.A® Gel Extraction Kit, OMEGA BIO-TEK, USA). Then, Novogene Co., Ltd. was commissioned for sequence identification. The data were processed and analyzed using […]
# All peptides were synthesized on a CEM Liberty Blue automated microwave peptide synthesizer by standard Fmoc solid-phase chemistry on a Rink Amide MBHA resin (0.025 mmol scale). Coupling reac-tions were performed with a Fmoc-AA-OH (5 eq., 0.2 M solution in DMF), DIC (5 eq., 0.25 M solution in DMF) and Oxyma Pure (5 eq., 1.0 M solution in DMF). Fmoc groups were removed using a 20% (v/v) solution of piperidine in DMF. […]
# (§2) In a typical experiment, reduced peptide (50 μM) was dissolved in 100 mM phosphate buffer (500 μL, pH 7.4) containing 6 M Gu·HCl, 0.5 mM GSSG and 10% DMSO (v/v). […] After analyzed by MALDI-TOF MS, the oxidized peptide was purified and lyophilized to yield […]
# (§3) Circular dichroism (CD) wavelength and temperature scans were recorded for thermal denaturation experiments. […] Wavelength scans from 190 nm to 260 nm were recorded at 25℃, 45℃, 75℃ and 95℃, and temperature were carried out at a heating rate of 5℃/min in 1 mm path length cuvettes.
# (§4) Fluorescence polarization (FP) assay
# (§5) (a) Fluorescence polarization binding assay. […]
# CD28 = molecular target: T2, CD28 (Homo sapiens, UniProt P10747); assay: Fluorescence polarization binding assay (saturation binding of FITC-drp8 to CD28); conditions: FP assay, same way as for oxidized FITC-drp8
# T2 construct: purchased Sino Biological 11524-HCCH
# T2 sequence (P10747 19-220): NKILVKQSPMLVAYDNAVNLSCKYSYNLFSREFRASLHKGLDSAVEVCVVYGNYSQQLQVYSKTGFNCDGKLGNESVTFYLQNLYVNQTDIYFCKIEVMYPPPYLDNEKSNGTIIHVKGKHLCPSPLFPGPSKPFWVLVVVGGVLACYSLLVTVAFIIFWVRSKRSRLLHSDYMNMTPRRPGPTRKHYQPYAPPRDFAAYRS
# Text: as §1
# All peptides were synthesized on a CEM Liberty Blue automated microwave peptide synthesizer by standard Fmoc solid-phase chemistry on a Rink Amide MBHA resin (0.025 mmol scale). Coupling reac-tions were performed with a Fmoc-AA-OH (5 eq., 0.2 M solution in DMF), DIC (5 eq., 0.25 M solution in DMF) and Oxyma Pure (5 eq., 1.0 M solution in DMF). […]
# as §2, §3, §4, §5
# min incubation at room temperature, the fluorescence anisotropies were measured using a plate reader (Eex= 485 nm, Eem=535 nm). […]
compound,measurement,setting,value
"CC[C@H](C)[C@@H]1NC(=O)[C@H](CCC(=O)O)NC(=O)[C@@H]2CSSC[C@H](NC(=O)[C@H](CO)NC(=O)[C@H](CO)NC(=O)[C@H](C(C)C)NC(=O)[C@H](CCC(=O)O)NC(=O)[C@H](CCSC)NC(=O)[C@@H]3CSSC[C@H](NC(=O)[C@H](CCCNC(=N)N)NC(=O)[C@H](CO)NC(=O)CNC1=O)C(=O)N1CCC[C@H]1C(=O)N1CCC[C@H]1C(=O)N[C@H](C(N)=O)CSSC[C@H](NC(=O)[C@@H](N)Cc1c[nH]c4ccccc14)C(=O)N1CCC[C@H]1C(=O)N1CCC[C@H]1C(=O)N3)C(=O)N[C@@H](CC(=O)O)C(=O)N[C@@H](CCC(=O)O)C(=O)N[C@@H](CCC(=O)O)C(=O)N[C@@H]([C@@H](C)O)C(=O)NCC(=O)N[C@@H](CCC(=O)O)C(=O)N2 [drp6] (H-WCPPCMEVSSCDEETGECEIGSRCPPC-NH2; disulfide 2-27, 5-24, 11-18)",Kd,Keap1,47 nM
"H-GCPPCESCHSGESTFWCYWEALCPPC-NH2 (also: bicyclic or more (positions not given here)) [drp2-a, oxidized product of drp2]",affinity to MDM2 (in words),MDM2,subnanomolar affinity
"H-SCPPCHGRPTCTKPGDNATPEKLAKYQACWELLTCPPC-OH (also: bicyclic or more (positions not given here)) [drp4, drp1 grafted with loop-α-helix fold of PPα-Tyr; recombinantly produced in E. coli as SUMO fusion]",thermal stability of the 3D structure (CD signal),[1],extremely stable to thermal treatment
"{FITC}-[βAla]GCPPCPREHELVAVPCEGLNNCWFVEACPPC-NH2 (cysteine pairing not given here) [reduced drp8, reduced form of fluorescein-labeled drp8]",binding of reduced labeled peptide to CD28 (in words),CD28,negligible
